In US20230085307A1, “PYRIDAZINONE COMPOUND AND HERBICIDE” (NISSAN CHEMICAL CORPORATION, priority 2019, published 2023):

What was measured:
oval-leafed pondweed = experiment: Test Example 2: herbicidal activity, application during weed generation under submerged conditions (Table 17, symbol C); assay type: in vivo, oval-leafed pondweed (Monochoria vaginalis); details: AAH 320 g/ha; application during weed generation, submerged conditions
Procedure, shortened: (§1)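 Mixed weed seedlings in alluvial soil under a 4 cm water layer, greenhouse-grown at 25–30° C. Compound given as a diluted emulsion into the floodwater at the 1–2 leaf stage; response graded after three weeks.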

windgrass [1] = experiment: Test Example 4: herbicidal effect by soil treatment (Table 19, symbol L); assay type: in vivo, windgrass (Apera spica-venti); details: amount of applied herbicide 320 g/ha
Procedure, shortened: (§2)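 Scoring uses the grading scale of an earlier test, three weeks post-application. Treatment consists of spraying a diluted emulsion formulation across the surface of sterilized diluvial soil in which seeds are buried near 1.5 cm deep; boxes are kept in a greenhouse between 25° C. and 30° C.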

barnyard grass = experiment: Test Example 3: herbicidal effect by foliage application, Wagner pot (Table 18, symbol H); assay type: in vivo, barnyard grass (Echinochloa crus-galli); details: 320 g/ha
Procedure, shortened: (§3)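 Plants were sown in alluvial soil held under 0.1–0.5 cm standing water and grown 14 days in a greenhouse at 25–30 °C. An emulsifiable formulation, water-diluted to the set dose, was then sprayed onto the foliage, and effects were scored three weeks later using previously defined criteria.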

Italian ryegrass [2] = experiment: Test Example 5: herbicidal effect by foliage application, plastic box (Table 20, symbol K); assay type: in vivo, Italian ryegrass (Lolium multiflorum); details: foliage application, 320 g/ha, three weeks after application
Procedure, shortened: (§4)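 Post-emergence foliar test in sterilized diluvial soil. Compound applied as water-diluted emulsion at a predetermined rate to 14-day-old plants; evaluation at three weeks.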

persian speedwell [3] = experiment: Test Example 5: herbicidal effect by foliage application, plastic box (Table 20, symbol R); assay type: in vivo, Persian speedwell (Veronica persica); details: foliage application, 320 g/ha, three weeks after application
Procedure, shortened: as §4

chickweed = experiment: Test Example 4: herbicidal effect by soil treatment (Table 19, symbol P); assay type: in vivo, common chickweed (Stellaria media); details: amount of applied herbicide 320 g/ha
Procedure, shortened: as §2

Japanese bulrush = experiment: Test Example 2: herbicidal activity, application during weed generation under submerged conditions (Table 17, symbol B); assay type: in vivo, Japanese bulrush (Schoenoplectus juncoides); details: AAH 320 g/ha; application during weed generation, submerged conditions
Procedure, shortened: as §1

late watergrass [4] = experiment: Test Example 2: herbicidal activity, application during weed generation under submerged conditions (Table 17, symbol A); assay type: in vivo, late watergrass (Echinochloa oryzicola); details: AAH 320 g/ha; application during weed generation, submerged conditions
Procedure, shortened: as §1

lambsquarters = experiment: Test Example 5: herbicidal effect by foliage application, plastic box (Table 20, symbol O); assay type: in vivo, lambsquarters (Chenopodium album); details: foliage application, 320 g/ha, three weeks after application
Procedure, shortened: as §4

persian speedwell [5] = experiment: Test Example 4: herbicidal effect by soil treatment (Table 19, symbol R); assay type: in vivo, Persian speedwell (Veronica persica); details: amount of applied herbicide 320 g/ha
Procedure, shortened: as §2

Italian ryegrass [6] = experiment: Test Example 4: herbicidal effect by soil treatment (Table 19, symbol K); assay type: in vivo, Italian ryegrass (Lolium multiflorum); details: amount of applied herbicide 320 g/ha
Procedure, shortened: as §2

green foxtail [7] = experiment: Test Example 5: herbicidal effect by foliage application, plastic box (Table 20, symbol G); assay type: in vivo, green foxtail (Setaria viridis); details: foliage application, 320 g/ha, three weeks after application
Procedure, shortened: as §4

green foxtail [8] = experiment: Test Example 4: herbicidal effect by soil treatment (Table 19, symbol G); assay type: in vivo, green foxtail (Setaria viridis); details: amount of applied herbicide 320 g/ha
Procedure, shortened: as §2

windgrass [9] = experiment: Test Example 5: herbicidal effect by foliage application, plastic box (Table 20, symbol L); assay type: in vivo, windgrass (Apera spica-venti); details: foliage application, 320 g/ha, three weeks after application
Procedure, shortened: as §4

rice flat sedge = experiment: Test Example 3: herbicidal effect by foliage application, Wagner pot (Table 18, symbol E); assay type: in vivo, rice flat sedge (Cyperus iria); details: 320 g/ha
Procedure, shortened: as §3

southern crabgrass = experiment: Test Example 5: herbicidal effect by foliage application, plastic box (Table 20, symbol F); assay type: in vivo, southern crabgrass (Digitaria ciliaris); details: foliage application, 320 g/ha, three weeks after application
Procedure, shortened: as §4

late watergrass [10] = experiment: Test Example 1: herbicidal activity, application before weed generation under submerged conditions (Table 16, symbol A); assay type: in vivo, late watergrass (Echinochloa oryzicola); details: amount of applied herbicide 320 g/ha
Procedure, shortened: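 Submerged Wagner pots (alluvial soil, 4 cm water) sown with weed seeds and planted with 2.5-leaf rice seedlings; emulsifiable concentrate diluted in water applied to water surface on sowing day. Held in greenhouse at 25-30 °C; injury scored 0-5 by herbicidal rate after three weeks.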

| SMILES | herbicidal effect rating, C: oval-leafed pondweed (oval-leafed pondweed) | L: windgrass, herbicidal effect grade (windgrass [1]) | herbicidal effect on barnyard grass (H) (barnyard grass) | K: Italian ryegrass, herbicidal effect grade (Italian ryegrass [2]) | R: persian speedwell, herbicidal effect grade (persian speedwell [3]) | P: chickweed, herbicidal effect grade (chickweed) | herbicidal effect rating, B: Japanese bulrush (Japanese bulrush) | herbicidal effect rating, A: late watergrass (late watergrass [4]) | O: lambsquarters, herbicidal effect grade (lambsquarters) | R: persian speedwell, herbicidal effect grade (persian speedwell [5]) | K: Italian ryegrass, herbicidal effect grade (Italian ryegrass [6]) | G: green foxtail, herbicidal effect grade (green foxtail [7]) | G: green foxtail, herbicidal effect grade (green foxtail [8]) | L: windgrass, herbicidal effect grade (windgrass [9]) | herbicidal effect on rice flat sedge (E) (rice flat sedge) | F: southern crabgrass, herbicidal effect grade (southern crabgrass) | Herbicidal effect, A: late watergrass (late watergrass [10]) |
| --- | --- | --- | --- | --- | --- | --- | --- | --- | --- | --- | --- | --- | --- | --- | --- | --- | --- |
| COc1ccc2c(-c3c(O)c(C)nn(C)c3=O)c(-c3ccc4c(c3)OCCO4)sc2c1 [3-082] | 3 (Herbicidal rate of 40% or more and less than 70%) | 0 (Herbicidal rate of 5% or less (almost no effect)) | 5 (Herbicidal rate of 90% or more (almost completely withered)) | 3 (Herbicidal rate of 40% or more and less than 70%) | 5 (Herbicidal rate of 90% or more (almost completely withered)) | 4 (Herbicidal rate of 70% or more and less than 90%) | 1 (Herbicidal rate of 5% or more and less than 20%) | 2 (Herbicidal rate of 20% or more and less than 40%) | 5 (Herbicidal rate of 90% or more (almost completely withered)) | 5 (Herbicidal rate of 90% or more (almost completely withered)) | 0 (Herbicidal rate of 5% or less (almost no effect)) | 3 (Herbicidal rate of 40% or more and less than 70%) | 0 (Herbicidal rate of 5% or less (almost no effect)) | 0 (Herbicidal rate of 5% or less (almost no effect)) | 5 (Herbicidal rate of 90% or more (almost completely withered)) | 0 (Herbicidal rate of 5% or less (almost no effect)) | 3 (Herbicidal rate of 40% or more and less than 70%) |
| CCCC(=O)Oc1c(C)nn(C)c(=O)c1-c1c(-c2ccc3c(c2)OCCO3)sc2cc(OC)ccc12 [3-083] | 4 (Herbicidal rate of 70% or more and less than 90%) | 0 (Herbicidal rate of 5% or less (almost no effect)) | 4 (Herbicidal rate of 70% or more and less than 90%) | 1 (Herbicidal rate of 5% or more and less than 20%) | 5 (Herbicidal rate of 90% or more (almost completely withered)) | 5 (Herbicidal rate of 90% or more (almost completely withered)) | 3 (Herbicidal rate of 40% or more and less than 70%) | 2 (Herbicidal rate of 20% or more and less than 40%) | 0 (Herbicidal rate of 5% or less (almost no effect)) | 5 (Herbicidal rate of 90% or more (almost completely withered)) | 0 (Herbicidal rate of 5% or less (almost no effect)) | 0 (Herbicidal rate of 5% or less (almost no effect)) | 4 (Herbicidal rate of 70% or more and less than 90%) | 0 (Herbicidal rate of 5% or less (almost no effect)) | 4 (Herbicidal rate of 70% or more and less than 90%) | 3 (Herbicidal rate of 40% or more and less than 70%) | 4 (Herbicidal rate of 70% or more and less than 90%) |
| CCOc1ccc2c(-c3c(O)c(C)nn(C)c3=O)c(-c3ccccc3OC)sc2c1 [3-089] | 5 (Herbicidal rate of 90% or more (almost completely withered)) | 4 (Herbicidal rate of 70% or more and less than 90%) | 5 (Herbicidal rate of 90% or more (almost completely withered)) | 5 (Herbicidal rate of 90% or more (almost completely withered)) | 5 (Herbicidal rate of 90% or more (almost completely withered)) | 4 (Herbicidal rate of 70% or more and less than 90%) | 5 (Herbicidal rate of 90% or more (almost completely withered)) | 4 (Herbicidal rate of 70% or more and less than 90%) | 4 (Herbicidal rate of 70% or more and less than 90%) | 5 (Herbicidal rate of 90% or more (almost completely withered)) | 4 (Herbicidal rate of 70% or more and less than 90%) | 4 (Herbicidal rate of 70% or more and less than 90%) | 4 (Herbicidal rate of 70% or more and less than 90%) | 5 (Herbicidal rate of 90% or more (almost completely withered)) | 5 (Herbicidal rate of 90% or more (almost completely withered)) | 4 (Herbicidal rate of 70% or more and less than 90%) | 5 (Herbicidal rate of 90% or more (almost completely withered)) |
| CCOc1ccc2c(-c3c(O)c(C)nn(C)c3=O)c(-c3ccccc3OCC)sc2c1 [3-093] | 5 (Herbicidal rate of 90% or more (almost completely withered)) | 4 (Herbicidal rate of 70% or more and less than 90%) | 5 (Herbicidal rate of 90% or more (almost completely withered)) | 5 (Herbicidal rate of 90% or more (almost completely withered)) | 5 (Herbicidal rate of 90% or more (almost completely withered)) | 4 (Herbicidal rate of 70% or more and less than 90%) | 5 (Herbicidal rate of 90% or more (almost completely withered)) | 3 (Herbicidal rate of 40% or more and less than 70%) | 5 (Herbicidal rate of 90% or more (almost completely withered)) | 5 (Herbicidal rate of 90% or more (almost completely withered)) | 4 (Herbicidal rate of 70% or more and less than 90%) | 5 (Herbicidal rate of 90% or more (almost completely withered)) | 5 (Herbicidal rate of 90% or more (almost completely withered)) | 5 (Herbicidal rate of 90% or more (almost completely withered)) | 5 (Herbicidal rate of 90% or more (almost completely withered)) | 5 (Herbicidal rate of 90% or more (almost completely withered)) | 5 (Herbicidal rate of 90% or more (almost completely withered)) |
